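Cells were grown in 96-well plates and exposed to each compound for 48 hours at five concentrations; endpoints were interpolated linearly between bracketing concentrations, or set to the highest concentration if not reached. GI50: concentration for 50% inhibition of growth. TGI: total growth inhibition.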
Experiments:
Assay in all cases: NCI tumour cell line growth inhibition, 48 h
MCF7 breast = test system: MCF7 breast
K-562 leukemia = test system: K-562 leukemia
UO-31 renal = test system: UO-31 renal
M14 melanoma = test system: M14 melanoma
UACC-62 melanoma = test system: UACC-62 melanoma
BT-549 breast = test system: BT-549 breast
HCT-15 colon = test system: HCT-15 colon
CAKI-1 renal = test system: CAKI-1 renal
DU-145 prostate = test system: DU-145 prostate
RPMI-8226 leukemia = test system: RPMI-8226 leukemia
OVCAR-3 ovarian = test system: OVCAR-3 ovarian
COLO 205 colon = test system: COLO 205 colon
SK-OV-3 ovarian = test system: SK-OV-3 ovarian
SNB-19 CNS = test system: SNB-19 CNS
SK-MEL-2 melanoma = test system: SK-MEL-2 melanoma
IGROV1 ovarian = test system: IGROV1 ovarian
T-47D breast = test system: T-47D breast
OVCAR-4 ovarian = test system: OVCAR-4 ovarian
NCI-H23 lung = test system: NCI-H23 lung
HOP-92 NSCLC = test system: HOP-92 NSCLC
HCC-2998 colon = test system: HCC-2998 colon
TK-10 renal = test system: TK-10 renal
MALME-3M melanoma = test system: MALME-3M melanoma
OVCAR-5 ovarian = test system: OVCAR-5 ovarian
CCRF-CEM leukemia = test system: CCRF-CEM leukemia
SF-295 CNS = test system: SF-295 CNS
SNB-75 CNS = test system: SNB-75 CNS
KM12 colon = test system: KM12 colon
HL-60(TB) leukemia = test system: HL-60(TB) leukemia
ACHN renal = test system: ACHN renal
SK-MEL-28 melanoma = test system: SK-MEL-28 melanoma
NCI-H226 lung = test system: NCI-H226 lung
A549 NSCLC = test system: A549 NSCLC
786-0 renal = test system: 786-0 renal
PC-3 prostate = test system: PC-3 prostate
HCT-116 colon = test system: HCT-116 colon
HOP-62 NSCLC = test system: HOP-62 NSCLC
SK-MEL-5 melanoma = test system: SK-MEL-5 melanoma
SF-539 CNS = test system: SF-539 CNS
SR leukemia = test system: SR leukemia
NCI/ADR-RES ovarian = test system: NCI/ADR-RES ovarian
HT29 colon = test system: HT29 colon
MOLT-4 leukemia = test system: MOLT-4 leukemia
LOX IMVI melanoma = test system: LOX IMVI melanoma
OVCAR-8 ovarian = test system: OVCAR-8 ovarian
UACC-257 melanoma = test system: UACC-257 melanoma
MDA-MB-231 breast = test system: MDA-MB-231 breast
A498 renal = test system: A498 renal
NCI-H522 lung = test system: NCI-H522 lung
SW-620 colon = test system: SW-620 colon
SF-268 CNS = test system: SF-268 CNS
HS 578T breast = test system: HS 578T breast
NCI-H460 lung = test system: NCI-H460 lung
U251 CNS = test system: U251 CNS
SN12C renal = test system: SN12C renal

## Nc1c(C(=O)Nc2cccc3ccccc23)sc2nc3c(cc12)C(=O)CCC3
MCF7 breast
  GI50: 206 nM
  TGI: > 100 µM
K-562 leukemia
  GI50: 131 nM
  TGI: > 100 µM
UO-31 renal
  GI50: 636 nM
  TGI: > 95.6 µM
M14 melanoma
  GI50: 240 nM
  TGI: > 100 µM
UACC-62 melanoma
  GI50: 166 nM
  TGI: > 75.8 µM
BT-549 breast
  GI50: 3.08 µM
  TGI: > 67.1 µM
HCT-15 colon
  GI50: 262 nM
  TGI: > 100 µM
CAKI-1 renal
  GI50: 359 nM
  TGI: > 100 µM
DU-145 prostate
  GI50: 337 nM
  TGI: 8.71 µM
RPMI-8226 leukemia
  GI50: 366 nM
  TGI: > 38.2 µM
OVCAR-3 ovarian
  GI50: 229 nM
  TGI: 696 nM
COLO 205 colon
  GI50: 150 nM
  TGI: 418 nM
SK-OV-3 ovarian
  GI50: 173 nM
  TGI: 7.65 µM
SNB-19 CNS
  GI50: 603 nM
  TGI: > 81 µM
SK-MEL-2 melanoma
  GI50: 91.5 nM
  TGI: 19.1 µM
IGROV1 ovarian
  GI50: 520 nM
  TGI: > 46.7 µM
T-47D breast
  GI50: 759 nM
  TGI: > 100 µM
OVCAR-4 ovarian
  GI50: 2770 nM
  TGI: > 51.7 µM
NCI-H23 lung
  GI50: 315 nM
  TGI: > 42.2 µM
HOP-92 NSCLC
  GI50: 2920 nM
  TGI: > 100 µM
HCC-2998 colon
  GI50: 300 nM
TK-10 renal
  GI50: 12.9 µM
  TGI: > 100 µM
MALME-3M melanoma
  GI50: 841 nM
  TGI: 54.7 µM
OVCAR-5 ovarian
  GI50: 604 nM
  TGI: > 100 µM
CCRF-CEM leukemia
  GI50: 290 nM
  TGI: > 100 µM
SF-295 CNS
  GI50: 77.9 nM
SNB-75 CNS
  GI50: 145 nM
  TGI: 12.2 µM
KM12 colon
  GI50: 217 nM
  TGI: > 100 µM
HL-60(TB) leukemia
  GI50: 246 nM
  TGI: 804 nM
ACHN renal
  GI50: 341 nM
  TGI: > 58.2 µM
SK-MEL-28 melanoma
  GI50: 341 nM
  TGI: 53.4 µM
NCI-H226 lung
  GI50: 1160 nM
  TGI: > 63.6 µM
A549 NSCLC
  GI50: 172 nM
  TGI: > 46.1 µM
786-0 renal
  GI50: 388 nM
  TGI: 35.8 µM
PC-3 prostate
  GI50: 295 nM
  TGI: > 48.5 µM
HCT-116 colon
  GI50: 327 nM
  TGI: > 100 µM
HOP-62 NSCLC
  GI50: 315 nM
  TGI: > 38.2 µM
SK-MEL-5 melanoma
  GI50: 333 nM
  TGI: 4.44 µM
SF-539 CNS
  GI50: 152 nM
  TGI: 456 nM
SR leukemia
  GI50: 380 nM
  TGI: > 100 µM
NCI/ADR-RES ovarian
  GI50: 225 nM
HT29 colon
  GI50: 265 nM
MOLT-4 leukemia
  GI50: 659 nM
  TGI: > 100 µM
LOX IMVI melanoma
  GI50: 554 nM
  TGI: > 100 µM
OVCAR-8 ovarian
  GI50: 506 nM
  TGI: 32.1 µM
UACC-257 melanoma
  GI50: 183 nM
  TGI: > 65.8 µM
MDA-MB-231 breast
  GI50: 379 nM
  TGI: 6.92 µM
A498 renal
  GI50: 46.3 nM
  TGI: 1550 nM
NCI-H522 lung
  GI50: 57 nM
  TGI: 1020 nM
SW-620 colon
  GI50: 222 nM
  TGI: > 100 µM
SF-268 CNS
  GI50: 587 nM
  TGI: > 65.6 µM
HS 578T breast
  GI50: 226 nM
  TGI: > 100 µM
NCI-H460 lung
  GI50: 165 nM
U251 CNS
  GI50: 266 nM
SN12C renal
  GI50: 539 nM
  TGI: > 100 µM
